Data reported in publication PMC7756341, “Liposomal FRET Assay Identifies Potent Drug‐Like Inhibitors of the Ceramide Transport Protein (CERT)” (Chemistry (Weinheim an Der Bergstrasse, Germany), 2020).

molecular target: T1, CERT (Homo sapiens, UniProt Q9Y5P4); experiment: NR-ceramide fluorescence competition assay; format: binding; conditions: 1 μM Nile red ceramide
T1 construct: made in house; host or cells: E. coli BL21 (DE3), pET-28a(+)
T1 sequence (Q9Y5P4 1-598 isoform Q9Y5P4-2): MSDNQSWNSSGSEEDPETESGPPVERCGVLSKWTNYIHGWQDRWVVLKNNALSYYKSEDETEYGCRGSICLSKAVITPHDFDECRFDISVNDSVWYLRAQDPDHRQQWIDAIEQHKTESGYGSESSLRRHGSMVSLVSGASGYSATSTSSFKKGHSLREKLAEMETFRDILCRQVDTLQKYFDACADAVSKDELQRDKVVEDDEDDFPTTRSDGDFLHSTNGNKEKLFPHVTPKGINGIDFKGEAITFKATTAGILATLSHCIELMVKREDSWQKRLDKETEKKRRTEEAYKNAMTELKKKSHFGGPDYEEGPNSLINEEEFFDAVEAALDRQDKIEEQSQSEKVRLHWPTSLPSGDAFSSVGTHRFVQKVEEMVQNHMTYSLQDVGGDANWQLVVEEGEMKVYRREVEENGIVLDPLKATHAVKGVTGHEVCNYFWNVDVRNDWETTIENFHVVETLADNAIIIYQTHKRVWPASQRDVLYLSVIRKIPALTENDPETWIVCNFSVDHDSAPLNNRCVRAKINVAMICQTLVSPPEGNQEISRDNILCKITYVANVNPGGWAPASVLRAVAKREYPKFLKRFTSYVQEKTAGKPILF
Source text: Having the identified hits from CERT-transfer assay, we were interested in further understanding the relationship between the CERT-transfer inhibitory activity and CERT-binding affinity. With this goal in mind, we have developed a homogenous competitive assay based on the binding of fluorescently-labeled ceramide to CERT-protein (Fig S6). It’s well known that Nile Red is […]
than in hydrophilic one. Based on this knowledge, we have designed a fluorescently-labeled probe in which the Nile Red-tag was incorporated into the ceramide fatty acid moiety. The NR-ceramide […]
excellent signal-to-noise ratio (28-fold, Fig S7.A). Equilibration takes ~1h of incubation at 30°C.
Furthermore, this assay is a simple mix-and read format and uses only low amounts of fluorophore (1µM) and CERT-protein (12.5µg/assay).
The assay was performed in non-binding black-bottom 96-well microplate (Greiner Bio-One). To each well was added 1µL HPA12 (final concentration 2.5µM) or DMSO, followed by 98 µL of the CERT aliquot (12.5µg/well). After the mixture was incubated for 40 min at 30°C, 1µL NR-ceramide (final concentration 1µM) was added. Controls were triplicates of 10mM Tris.HCl buffer (pH 7.4, 250 mM sucrose) with 2µL DMSO, CERT aliquot (12.5µg/well) with 2µL DMSO, and 1µL NR-ceramide (final concentration 1µM) in 10mM Tris.HCl buffer (pH 7.4, 250 mM sucrose) with 1µL DMSO. The plate was then sealed with transparent Thermowell seal tape and placed in the microplate reader (LABTECH) at 30°C with shaking. The fluorescence was measured from the top over 80min (number of cycles 35, delay 70 sec) with excitation filter 540 nm and emission filter 640 nm. The competitive CERT-binding activity was calculated using the formula: Ix = I(À2-Y)/I0(À1-X), where À1 is the average of the florescence of the control of NR-ceramide in Tris.HCl buffer, X is the average of the fluorescence of the buffer alone, À2 is the fluorescence average of the assay mixture, Y is the fluorescence average of the CERT aliquot with inhibitor/DMSO (Fig […]
It is however lower than the differentiation in the transfer assay (Fig S8B).
3.2 High throughput screening for CERT-activity and Data analysis
In order to validate the performance of developed assay in high-throughput screening format, the hits from ‘confirmed-hit group’ (45 hits) were screened for their competitive CERT-binding activity. The assay was performed as mentioned in the previous sub-section 3.1. Briefly, 1µL tested compound (final concentration 1µM, 2.5µM, 5µM, 10µM) or DMSO for control, and 98 µL CERT stock solution were sequentially added into a non-binding 96-well microplate. The plate was sealed and incubated at 30°C for 40 min, before 1µL NR-ceramide (final concentration 1µM) was added.
Controls per plate were triplicates of 10mM Tris.HCl buffer (pH 7.4, 250 mM sucrose) with 2µL DMSO, CERT aliquot (12.5µg/well) with 2µL DMSO, 1µL NR-ceramide (final concentration 1µM) in 10mM Tris.HCl buffer (pH 7.4, 250 mM sucrose), and HPA12 as a reference inhibitor (final concentration of 1µM, and 2.5µM, 5µM). The plate was sealed with transparent Thermowell seal tape and the assay was allowed to proceed as described above using excitation filter 540 nm and emission filter 640 nm. The competitive CERT-binding activity was calculated using the formula: Ix = I(À2-Y)/I0(À1-X), where À1 is the average of the florescence of the control 1µL NR-ceramide in Tris.HCl buffer, X is the average of the fluorescence of the buffer alone, À2 is the average of the fluorescence of assay mixture treated with tested compound or DMSO, Y is the average of the fluorescence of CERT aliquot with inhibitor/DMSO.

| Structure (SMILES) | activity in the NR ceramide competition assay |
| --- | --- |
| O=C(NC1CCN(CCCCC2(C(=O)NCC(F)(F)F)c3ccccc3-c3ccccc32)CC1)c1ccccc1-c1ccc(C(F)(F)F)cc1 [8E8, lomitapide] | high activity |
| Cc1cc(C2=NOC(c3cc(Cl)cc(Cl)c3)(C(F)(F)F)C2)ccc1C(=O)NCC(=O)NCC(F)(F)F (centres unmarked) [20D5, Fluralaner] | high activity |
| CCCCCCCCCCCC(=O)NC(CO)CC(O)c1ccccc1 (centres unmarked) [HPA-12, N-(3Hydroxy-1-hydroxymethyl-3-phenylpropyl)-dodecamide] | reverted to approximately the initial value |

Continued, values first:

| activity in the NR ceramide competition assay | Structure (SMILES) |
| --- | --- |
| high activity | CCCC(=O)OCOC(=O)C1=C(C)NC(C)=C(C(=O)OC)C1c1cccc(Cl)c1Cl (centres unmarked) [6B11, Clevidipine butyrate] |
| very strong competition | CC1=NN(c2ccc(C)c(C)c2)C(=O)/C1=N\Nc1cccc(-c2cccc(C(=O)O)c2)c1O [17C9, Eltrombopag] |
